{"source": "patent EP0201420A1", "about": "“2-(2-Acetamido-2-deoxy-3-O-D-glucopyranosyl)-alkanoyl-aminoacyl-nor leucin glycopeptides or derivatives of these glycopeptides, and immunoadjuvant compositions containing them” (ANVAR Agence Nationale de Valorisation de la Recherche, priority 1985, dated 1986)", "data": [{"test_system": "réponse humorale de la souris swiss femelle à la sérumalbumine bovine", "assay": "Immunoadjuvant activity: humoral antibody response to bovine serum albumin, measured by passive haemagglutination", "format": "in vivo", "conditions": "100 µg per mouse s.c. with 0,5 mg bovine serum albumin in aqueous solution; primary response day 28, secondary response day 36", "procedure": "L'activité immunoadjuvante a été étudiée en mettant en jeu la réponse humorale de la souris swiss femelle à la sérumalbumine bovine.\nDes groupes de huit souris âgées de 2 mois reçoivent par voie sous-cutanée 0,5 mg de sérumalbumine bovine avec ou sans les substances à tester, à raison de 100 µg par souris. Les administrations sont faites en solution aqueuse.\nAu jour 28, on effectue des prélèvements du sérum sanguin sur les souris traitées et la réponse primaire en anticorps est déterminée par hémagglutination passive en utilisant des hématies de moutons traitées à la formaline et recouvertes de l'antigène étudié selon la méthode décrite par A. A. HIRATA et M.V. BRANDISSE (5. immunol.100, 541 - 648, 1968). Au jour 30 les souris reçoivent une injection de rappel avec les antigènes seuls (100 µg par souris) et au jour 36 on mesure la réponse secondaire induite par la même technique de mesure .\nLes résultats de ces essais figurent dans le tableau 1 qui suit. Ce tableau contient également les résultats mesurés dans les mêmes conditions chez les animaux témoins et chez des animaux qui ont été traités de la même manière avec le MDP à titre de substance de comparaison.", "values": [{"compound": "CCCCOC(=O)[C@@H](CCCC)NC(=O)[C@H](C)NC(=O)[C@@H](C)O[C@H]1[C@H](O)[C@@H](CO)OC(O)[C@@H]1NC(C)=O", "note": "(stereo partly drawn) [compound 2]", "activité immunoadjuvante": "une activité qui se rapproche sensiblement"}, {"compound": "CCCC[C@@H](NC(=O)[C@H](C)NC(=O)[C@@H](C)O[C@H]1[C@H](O)[C@@H](CO)OC(O)[C@@H]1NC(C)=O)C(=O)OC", "note": "(stereo partly drawn) [compound 6]", "activité immunoadjuvante": "une activité qui se rapproche sensiblement"}, {"compound": "CCCC[C@@H](NC(=O)[C@H](C)NC(=O)[C@@H](C)O[C@H]1[C@H](O)[C@@H](CO)OC(O)[C@@H]1NC(C)=O)C(N)=O", "note": "(stereo partly drawn) [compound 1]", "activité immunoadjuvante": "n'a pas témoigné d'une activité spécifique"}, {"compound": "CCCCOC(=O)[C@@H](CCCC)NC(=O)[C@H](C)NC(=O)CO[C@H]1[C@H](O)[C@@H](CO)OC(O)[C@@H]1NC(C)=O", "note": "(stereo partly drawn) [compound 5]", "activité immunoadjuvante": "une activité qui se rapproche sensiblement"}]}, {"test_system": "globules rouges de mouton", "assay": "Immunosuppression test: high dose given before sheep red blood cells, haemolytic plaques of splenocytes counted (Cunningham method)", "format": "in vivo, souris", "conditions": "1 mg per mouse 2 days before 10^8 sheep red blood cells; splenocytes taken 4 days after; experiment repeated 3 times", "procedure": "Dans l'expérience qui figure au tableau Ibis et qui a été répétéa 3 fois, le MDP et les autres substances ont été injectés à des souris à une dose 10 ou 20 fois plus élevée que d'habitude (1 mg) 2 jours avant l'injection de 10^8 globules rouges de mouton. Les splénocytes ont été pélevés et mis en culture 4 jours après l'injection de globules rouges de mouton et le nombre de plages hémolytiques dosées selon la méthode de Cunningham.", "values": [{"compound": "CCCCOC(=O)[C@@H](CCC(N)=O)NC(=O)[C@H](C)NC(=O)[C@@H](C)O[C@H]1[C@H](O)[C@@H](CO)OC(O)[C@@H]1NC(C)=O", "note": "(stereo partly drawn) [murabutide]", "inhibition de la production d'anticorps (nombre de plages hémolytiques)": "inhibe totalement la production d'anticorps"}, {"compound": "CC(=O)N[C@H]1C(O)O[C@H](CO)[C@@H](O)[C@@H]1O[C@H](C)C(=O)N[C@@H](C)C(=O)N[C@H](CCC(=O)O)C(N)=O", "note": "(stereo partly drawn) [MDP, N-acétyl-muramyl-L-alanyl-D-isoglutamine]", "inhibition de la production d'anticorps (nombre de plages hémolytiques)": "inhibe totalement la production d'anticorps"}]}]}
